Assay [1] deals with T1, FAM-Aβ42 (Homo sapiens, UniProt P05067).
T1 construct: a Aβ42 labeled with fluorescent dye (FAM) (FAM-Aβ42); purchased American Peptide Company
Briefly: SDS-PAGE of copper-induced crosslinking of FAM-Aβ42. It counts as biochemical. The conditions noted are these: for intensity of monomeric Aβ bands relative to non-treated group: 4 hours incubation with copper sulfate and vitamin C. The method, then: (§1) Samples were separated on 4-20% gradient Tris-glycine mini gels (Invitrogen). For FAM-Aβ42 gels, the images were acquired on IVIS®Spectrum (Caliper, Perkin Elmer) with excitation=465 nm, and emission=520 nm. For native Aβ42 gels, the gel was transferred to a nitrocellulose membrane in a cooled transferring buffer and the membrane was blocked at room temperature for 2 hours. After blocking, the membrane was incubated in a solution of 6E10 anti-Aβ primary antibody (1:2000 dilution, Covance, Dedham, Mass.) at 4° C. overnight. After washing with TBS buffer, the membrane was incubated with the secondary antibody for 2 hours at room temperature. Western Breeze Chemiluminescent kit (Invitrogen) was used to visualize the bands. The images were acquired using IVIS®Spectrum (Caliper, Perkin Elmer) using bioluminescence imaging setting. SeeBlue®plus2 (Invitrogen)(4-250KD) was used as a molecular weight marker.
(§2) All the samples used for SDS-PAGE gel and Western blot were prepared using the same procedure as described below. A 5 μL HFIP (hexafluoroisopropanol) solution (25 μM) of native Aβ42 or FAM-Aβ42 was added to a 1.5 mL eppendorf tube. After evaporating the organic solvent under vacuum, a 5 μL at DMSO or DMSO solution of CRANAD-17 (100 μM) was added to the tube, followed by the addition of 15 μL of Vitamin C solution in PBS (33.3 μM) and 5 μL of copper sulfate solution in PBS (12.5 μM). The resulting mixture was incubated at 37° C. for 4 hours, and was then subjected to gel electrophoresis. For dose dependency study, 5 μL of DMSO solution of different CRANAD-17 concentrations (25, 125, 250 μM) was added to obtain CRANAD-17/Aβ42 ratio equals 1:1, 5:1, and 10:1.

Assay [2] addresses T2, Aβ42 (Homo sapiens, UniProt P05067).
T2 construct: Synthetic amyloid-β peptide (1-40/42) was purchased from rPeptide; purchased rPeptide (Bogart, Ga.)
Briefly: Western blot of copper-induced crosslinking of native Aβ42. It counts as biochemical. The conditions noted are these: for attenuation of copper-induced crosslinking of native Aβ42: 4 hours incubation; for high molecular weight species on gel: copper treated. As for the experimental part: as §1, §2
To this end, human Aβ42 was incubated with curcumin, CRANAD-3 and CRANAD-17 under the same conditions as above.

Assay [3] has as its target T3, [H13R]Aβ40 (Homo sapiens, UniProt P05067, H684R).
T3 construct: [H13R]Aβ40 monomers; purchased American Peptide Company
The assay can be described thus: Fluorescence spectra recording with [H13R]Aβ40. It is filed as binding. The method, then: (§3) The procedure described below was used for all experiments. To test the interactions of CRANAD-17 with Aβ species including Aβ42 monomers, Aβ40 monomers and [H13R]Aβ40 monomers, we utilize the following protocol. Step 1: 1.0 mL of PBS buffer was added to a quartz curvet as a blank control and its fluorescence was recorded with the same parameters as for CRANAD-17; Step 2: fluorescence of a CRANAD-17 solution (1 mL, 500 nM) was recorded with excitation at 480 nm and emission from 500 nm to 900 nm; Step 3: to the above CRANAD-17 solution, 10 μL of Aβ species (25 μM) was added to make the final Aβ species concentration of 250 nM, and the fluorescence spectrum from this solution was recorded. The final spectra from steps 2 and 3 were corrected using the blank control from step 1.
Conceivably, it is possible that the pyridyl ring on the other end of CRANAD-3 has a specific interaction with H13 and H14 of Aβ, which have aromatic imidazolium rings and are at the equal distance from K16 as VFF. To this end, the fluorescence intensities of CRANAD-3 with Aβ and H13R substituted Aβ ([H13R]Aβ), in which H13 is replaced by arginine (R) was compared.

For assay [4], the system named is APP/PS1 mice. The assay can be described thus: In vivo six-month treatment of APP/PS1 mice (NIR imaging, ELISA, plaque counting). The conditions noted are these: 4 mg/kg i.p. twice a week, 6-month treatment. The method, then:
Transgenic APP-PS1 mice and age-matched wild type mice were purchased from Jackson Laboratory. In vivo NIR imaging was recorded using the IVIS° Spectrum.
Ten APP/PS 1 mice (4-month) were divided into 2 groups (n=5/group), and one group was i.p. injected with 100 microliter of CRANAD-17 (4 mg/kg, formulated withl0% cremophor, 10% DMSO and 80% PBS) twice a week. After 6-month treatment, the two groups were subjected to NIR imaging with CRANAD-3 (ex=605, em=680 nm), and then were sacrificed. The brain of each mouse was taken, and dissected in two halves. One half brain was subjected to extraction and then to ELISA analysis. The other half brain was dissected into 25 micron slices, and then the slices were stained with Thioflavin S. Eight slices from hippocampus area of each mouse were subjected to amyloid beta plaque counting by ImageJ.

Assay [5] concerns the target T2, Aβ42. The assay can be described thus: Thioflavin T test of Aβ42 aggregation. It counts as biochemical. The conditions noted are these: 10 μM compound, 37° C., 24 hours. As for the experimental part:
A 2.5 μM of Aβ42 solution in PBS was placed at 37° C. for 24 hours., and 10 μL of this solution was added to 1.0 ml PBS solution. The resulting solution was and then subjected to fluorescence spectrum recording with excitation=440 nm, and emission=470-800 nm (baseline recording). To this solution, 10 μL of thioflavin T (2.5 μM in PBS) was added and the spectrum was recorded. The quantification was conducted at λem=500 nm for Thioflavin T reading by subtracting the baseline reading. For CRANAD-17 (10 μM) incubation, the quantification was conducted by subtracting the readings at baseline and CRANAD-17 at λem=500 nm.

For assay [6], the target named is T2, Aβ42. Briefly: TEM measurement of Aβ42 aggregation. It is filed as biochemical. The conditions noted are these: 1.0 μM compound, 250 nM Aβ42, 37° C., 24 hours. The method, then: A 250 nM of Aβ42 in PBS solution was placed was at 37° C. for 24 hours. Next, 5 μL of this solution was dropped onto a Formvar coated TEM grid, followed by the addition of 2 μL of PTA contrast solution. After one minute, the liquid on the grid was carefully dried with a corner of a filter paper, and the resulting grid was further dried in the air for 2-5 minute. The TEM images were taken with JEOL 1011 electron microscope. Similar procedure was used for the incubated solution of CRANAD-l7 (1.0 μM) and Aβ42 (250 nM).

The target in assay [7] is T4, human Aβ40 (Homo sapiens, UniProt P05067).
T4 construct: Synthetic amyloid-β peptide (1-40/42) was purchased from rPeptide; purchased rPeptide (Bogart, Ga.)
The assay can be described thus: Fluorescence spectra recording with Aβ40. It counts as binding. The conditions noted are these: 500 nM compound, 250 nM Aβ. As for the experimental part:
as §3

For `c1ccc(-n2ccnc2)cc1` [4-(1H-imidazol-1-yl)benzene], in assay [1] (FAM-Aβ42/compound 1:1, 1:5, 1:10), the “attenuation of copper-induced crosslinking” value was “relatively small compared to CRANAD-17”.
Consider `COc1cc(/C=C/C(=O)CC(=O)/C=C/c2ccc(O)c(OC)c2)ccc1O` [curcumin], for which the “attenuation of copper-induced crosslinking of native Aβ42” value in assay [2] (Western blot) is “could attenuate crosslinking”. For the same compound, in assay [2], the “high molecular weight species on gel” value is listed as “no significant amount of high molecular weight species”. For the same compound, the “intensity of monomeric Aβ bands relative to non-treated group” value in assay [1] is 1.07 fold.
With CRANAD-17, in assay [3], the “blue-shift with [H13R]Aβ” value is on record as “no significant blue-shift” and the “fluorescence intensity with [H13R]Aβ compared to native Aβ” value is “significantly lower fluorescence intensity”. In assay [4], the “ELISA analysis of brain extraction, reduction” value turned out to be 36% and the “lower NIR signals than non-treated group (imaging with CRANAD-3)” value turned out to be 25%. Further, the “plaque counting, reduction” value in assay [4] (hippocampus slices, Thioflavin S) turned out to be 78%. For the same compound, in assay [5], the “Thioflavin T fluorescence signal” value is “lower fluorescence signal”. Besides, in assay [2] (Western blot), the “attenuation effect compared to curcumin and CRANAD-3” value is on record as “significantly higher attenuation effect”; the “attenuation of copper-induced crosslinking of native Aβ42” value was “could attenuate crosslinking”. Also, the “high molecular weight species on gel” value in assay [2] was “a certain amount of high molecular weight oligomeric species”. The “intensity of monomeric Aβ bands relative to non-treated group” value in assay [1] is given as 1.92 fold. The “visible fibrils by TEM compared to control (Aβ42 treated with copper only)” value in assay [6] is “less visible fibrils”. Also, the “fluorescence property changes upon mixing with Aβ” value in assay [7] is “intensity increase and blue-shift”.
